Data on one sequence can be found in ChEMBL document CHEMBL2073745, “Disruption of the mouse mdr1a P-glycoprotein gene leads to a deficiency in the blood-brain barrier and to increased sensitivity to drugs” (Cell, 1994).

The target of the data set is ATP-dependent translocase ABCB1 (Mus musculus, UniProt P21447). Kind of data set: TP_TRANSPORTER: increase in plasma concentration in mdr1a(-/-) mouse. The format is functional, organism-based. To be noted: in vivo.
Sequence of ATP-dependent translocase ABCB1 (P21447 whole entry): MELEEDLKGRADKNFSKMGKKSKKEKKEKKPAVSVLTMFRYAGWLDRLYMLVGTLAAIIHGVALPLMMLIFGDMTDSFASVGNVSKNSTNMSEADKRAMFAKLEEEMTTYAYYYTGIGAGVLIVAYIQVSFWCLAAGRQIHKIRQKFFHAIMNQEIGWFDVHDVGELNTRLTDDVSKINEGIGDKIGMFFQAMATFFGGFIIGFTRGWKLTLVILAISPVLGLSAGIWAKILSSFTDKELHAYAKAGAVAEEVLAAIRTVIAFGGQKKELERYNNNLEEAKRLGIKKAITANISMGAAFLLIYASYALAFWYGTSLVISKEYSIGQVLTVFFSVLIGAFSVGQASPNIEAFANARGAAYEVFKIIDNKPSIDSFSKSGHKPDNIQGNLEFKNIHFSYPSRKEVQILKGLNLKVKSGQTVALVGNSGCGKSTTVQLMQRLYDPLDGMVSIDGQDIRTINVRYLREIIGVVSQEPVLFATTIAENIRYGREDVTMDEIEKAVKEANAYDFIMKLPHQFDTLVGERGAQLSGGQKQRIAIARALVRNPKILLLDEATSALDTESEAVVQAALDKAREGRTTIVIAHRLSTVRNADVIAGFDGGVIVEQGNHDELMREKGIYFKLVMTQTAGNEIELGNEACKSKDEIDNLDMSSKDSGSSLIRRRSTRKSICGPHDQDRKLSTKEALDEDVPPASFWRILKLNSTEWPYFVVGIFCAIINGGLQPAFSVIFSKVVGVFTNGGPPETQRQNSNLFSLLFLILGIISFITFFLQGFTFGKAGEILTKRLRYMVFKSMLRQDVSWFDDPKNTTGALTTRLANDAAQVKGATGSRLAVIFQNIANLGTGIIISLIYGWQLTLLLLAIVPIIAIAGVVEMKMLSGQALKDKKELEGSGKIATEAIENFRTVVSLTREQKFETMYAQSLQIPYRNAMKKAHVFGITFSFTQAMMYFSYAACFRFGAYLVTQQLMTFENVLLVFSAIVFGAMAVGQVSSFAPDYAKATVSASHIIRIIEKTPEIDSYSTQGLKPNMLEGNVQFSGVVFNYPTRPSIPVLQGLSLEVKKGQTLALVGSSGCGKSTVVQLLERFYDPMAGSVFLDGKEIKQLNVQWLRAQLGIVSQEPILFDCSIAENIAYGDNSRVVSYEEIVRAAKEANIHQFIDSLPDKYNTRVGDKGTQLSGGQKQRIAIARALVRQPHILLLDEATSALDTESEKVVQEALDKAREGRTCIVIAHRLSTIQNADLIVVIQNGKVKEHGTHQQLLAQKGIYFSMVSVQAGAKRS

On to IVERMECTIN, for which the Activity result was “substrate [+]”.
